Assay results published in ChEMBL document CHEMBL5260832, “Hepatoprotective natural triterpenoids” (Eur J Med Chem, 2018).

These compounds were tested on Mus musculus (assay: Hepatoprotective activity against D-GaIN/CCl4 induced liver injury mouse model assessed as reduction in GPT level at 30 microg/kg, iv relative to control). Conditions: dose 30 µg/kg.
Type: functional
Design: scale not given: the % may be the effect or the level left

SMILES | Activity
CC(C)=CCC[C@@](C)(O)[C@H]1CC[C@]2(C)[C@@H]1[C@H](O)C[C@@H]1[C@@]3(C)CC[C@H](O)C(C)(C)[C@@H]3[C@@H](O[C@@H]3O[C@H](CO)[C@@H](O)[C@H](O)[C@H]3O[C@@H]3O[C@H](CO)[C@@H](O)[C@H](O)[C@H]3O)C[C@]12C | 73%
CC(C)=CCC[C@@](C)(O)[C@H]1CC[C@]2(C)[C@@H]1[C@H](O)C[C@@H]1[C@@]3(C)CC[C@H](O)C(C)(C)[C@@H]3[C@@H](O[C@@H]3O[C@H](CO)[C@@H](O)[C@H](O)[C@H]3O[C@@H]3O[C@@H](C)[C@H](O)[C@@H](O)[C@H]3O)C[C@]12C | 50%

Each compound was assayed on L02 (assay: Hepatoprotective activity against D-GaIN-induced toxicity in human HL7702 cells assessed as inhibition of cell survival rate at 10 uM relative to control). Conditions: not given.
Type: functional

SMILES | Activity
C[C@@H]1O[C@@H](O[C@H]2[C@H](O[C@H]3[C@H](O[C@H]4CC[C@]5(C)[C@H]6CC=C7[C@@H]8CC(C)(C)CC[C@]8(C(=O)O[C@@H]8O[C@H](CO)[C@@H](O)[C@H](O)[C@H]8O)CC[C@@]7(C)[C@]6(C)CC[C@H]5C4(C)C)O[C@H](C(=O)O)[C@@H](O)[C@@H]3O)O[C@H](CO)[C@@H](O)[C@@H]2O)[C@H](O)[C@H](O)[C@H]1O | 87.3%
CCCCOC(=O)[C@H]1O[C@@H](O[C@H]2CC[C@]3(C)[C@H]4CC=C5[C@@H]6CC(C)(C)CC[C@]6(C(=O)O[C@@H]6O[C@H](CO)[C@@H](O)[C@H](O)[C@H]6O[C@@H]6OC[C@@H](O)[C@H](O)[C@H]6O)CC[C@@]5(C)[C@]4(C)CC[C@H]3C2(C)C)[C@H](O[C@@H]2O[C@H](CO)[C@@H](O)[C@H](O)[C@H]2O[C@@H]2O[C@@H](C)[C@H](O)[C@@H](O)[C@H]2O)[C@@H](O)[C@@H]1O | 54.7%
C[C@@H]1O[C@@H](O[C@H]2[C@H](O[C@H]3[C@H](O[C@H]4CC[C@]5(C)[C@H]6CC=C7[C@@H]8CC(C)(C)CC[C@]8(C(=O)O)CC[C@@]7(C)[C@]6(C)CC[C@H]5C4(C)C)O[C@H](C(=O)O)[C@@H](O)[C@@H]3O)O[C@H](CO)[C@@H](O)[C@@H]2O)[C@H](O)[C@H](O)[C@H]1O | 56.8%
C=C(C)[C@@H]1CC[C@]2(C(=O)O)CC[C@]3(C)[C@H](CC[C@@H]4[C@@]5(C)CC[C@H](O[C@@H]6O[C@H](C(=O)OCC)[C@@H](O)[C@H](O)[C@H]6O[C@@H]6OC[C@@H](O)[C@H](O)[C@H]6O)C(C)(C)[C@@H]5CC[C@]43C)[C@@H]12 | 32.8%
CCOC(=O)[C@H]1O[C@@H](O[C@H]2CC[C@]3(C)[C@H]4CC=C5[C@@H]6CC(C)(C)CC[C@]6(C(=O)O)CC[C@@]5(C)[C@]4(C)CC[C@H]3C2(C)C)[C@H](O[C@@H]2O[C@H](CO)[C@@H](O)[C@H](O)[C@H]2O[C@@H]2OC[C@@H](O)[C@H](O)[C@H]2O)[C@@H](O)[C@@H]1O | 44.8%
COC(=O)c1cc(OC)c2c(c1-c1c(CO)cc(OC)c3c1OCO3)OCO2 [BICYCLOL] | 26.2%
CCCCOC(=O)[C@H]1O[C@@H](O[C@H]2CC[C@]3(C)[C@H]4CC=C5[C@@H]6[C@@H](C)[C@H](C)CC[C@]6(C(=O)O[C@@H]6O[C@H](CO)[C@@H](O[C@@H]7O[C@@H](C)[C@H](O)[C@@H](O)[C@H]7O)[C@H](O)[C@H]6O)CC[C@@]5(C)[C@]4(C)CC[C@H]3C2(C)C)[C@H](O[C@@H]2O[C@H](CO)[C@@H](O)[C@H](O)[C@H]2O[C@@H]2O[C@@H](C)[C@H](O)[C@@H](O)[C@H]2O)[C@@H](O)[C@@H]1O | 32.2%
CC1(C)CC[C@]2(C(=O)O)CC[C@]3(C)C(=CC[C@@H]4[C@@]5(C)CC[C@H](O)[C@@](C)(CO)[C@@H]5CC[C@]43C)[C@@H]2C1 [HEDERAGENIN] | 62.4%
CCOC(=O)[C@H]1O[C@@H](O[C@H]2CC[C@]3(C)[C@H]4CC=C5[C@@H]6CC(C)(C)CC[C@]6(C(=O)O[C@@H]6O[C@H](CO)[C@@H](O[C@@H]7O[C@@H](C)[C@H](O)[C@@H](O)[C@H]7O)[C@H](O)[C@H]6O)CC[C@@]5(C)[C@]4(C)CC[C@H]3C2(C)C)[C@H](O[C@@H]2O[C@H](CO)[C@@H](O)[C@H](O)[C@H]2O[C@@H]2O[C@@H](C)[C@H](O)[C@@H](O)[C@H]2O)[C@@H](O)[C@@H]1O | 81.4%
C=C(C)[C@@H]1CC[C@]2(C(=O)O[C@@H]3O[C@H](C(=O)OCC)[C@@H](O)[C@H](O)[C@H]3O[C@@H]3OC[C@@H](O)[C@H](O)[C@H]3O)CC[C@]3(C)[C@H](CC[C@@H]4[C@@]5(C)CC[C@H](O)C(C)(C)[C@@H]5CC[C@]43C)[C@@H]12 | 48.3%
CCOC(=O)[C@H]1O[C@@H](O[C@H]2CC[C@]3(C)[C@H]4CC=C5[C@@H]6CC(C)(C)CC[C@]6(C(=O)O[C@@H]6O[C@H](CO)[C@@H](O)[C@H](O)[C@H]6O[C@@H]6O[C@H](COC(C)=O)[C@@H](O)[C@H](O)[C@H]6O)CC[C@@]5(C)[C@]4(C)CC[C@H]3C2(C)C)[C@H](O[C@@H]2O[C@H](CO)[C@@H](O)[C@H](O)[C@H]2O[C@@H]2O[C@@H](C)[C@H](O)[C@@H](O)[C@H]2O)[C@@H](O)[C@@H]1O | 75.7%
CC1(C)C[C@H]2C3=CC[C@@H]4[C@@]5(C)C=CC(=O)C(C)(C)[C@@H]5CC[C@@]4(C)[C@]3(C)CC[C@@]2(C(=O)O)C[C@@H]1O | 76.8%
CCCCOC(=O)[C@H]1O[C@@H](O[C@H]2CC[C@]3(C)[C@H]4CC=C5[C@@H]6CC(C)(C)CC[C@]6(C(=O)O[C@@H]6O[C@H](CO)[C@@H](O)[C@H](O)[C@H]6O)CC[C@@]5(C)[C@]4(C)CC[C@H]3C2(C)C)[C@H](O[C@@H]2O[C@H](CO)[C@@H](O)[C@H](O)[C@H]2O)[C@@H](O)[C@@H]1O[C@@H]1OC[C@H](O)[C@H](O)[C@H]1O | 48.3%

Each compound was assayed on Hepatocyte (assay: Hepatoprotective activity against D-GaIN/LPS induced liver injury in rat hepatocytes assessed as cell death at 10 to 500 uM relative to control). Conditions: dose 10-500 µM.
Type: functional

SMILES | Activity
C[C@@H]1O[C@@H](O[C@H]2[C@H](O[C@H]3[C@H](O[C@H]4CC[C@@]5(C)[C@@H](CC[C@]6(C)[C@@H]5CC=C5[C@@H]7CC(C)(C)C[C@@H](O[C@@H]8O[C@@H](C)[C@H](O)[C@@H](O)[C@H]8O)[C@]7(C)CC[C@]56C)[C@@]4(C)CO)O[C@H](C(=O)O)[C@@H](O)[C@@H]3O)O[C@H](CO)[C@H](O)[C@@H]2O)[C@H](O)[C@H](O)[C@H]1O | 0%
C[C@@H]1O[C@@H](O[C@H]2[C@H](O[C@H]3[C@H](O[C@H]4CC[C@@]5(C)[C@@H](CC[C@]6(C)[C@@H]5CC=C5[C@@H]7CC(C)(C)C[C@@H](O)[C@]7(C)CC[C@]56C)[C@@]4(C)CO)O[C@H](C(=O)O)[C@@H](O)[C@@H]3O)O[C@H](CO)[C@H](O)[C@@H]2O)[C@H](O)[C@H](O)[C@H]1O [SOYASAPONIN I] | 0%
C[C@@H]1O[C@@H](O[C@H]2[C@H](O[C@H]3[C@H](O[C@H]4CC[C@@]5(C)[C@@H](CC[C@]6(C)[C@@H]5CC=C5[C@@H]7CC(C)(C)[C@H](O[C@@H]8O[C@H](CO)[C@@H](O)[C@H](O)[C@H]8O)C[C@]7(C)CC[C@]56C)[C@@]4(C)CO)O[C@H](C(=O)O)[C@@H](O)[C@@H]3O)O[C@H](CO)[C@H](O)[C@@H]2O)[C@H](O)[C@H](O)[C@H]1O | 0%
C[C@@H]1O[C@@H](O[C@H]2[C@H](O[C@H]3[C@H](O[C@H]4CC[C@@]5(C)[C@@H](CC[C@]6(C)[C@@H]5CC=C5[C@@H]7CC(C)(C)CC(=O)[C@]7(C)CC[C@]56C)[C@@]4(C)CO)O[C@H](C(=O)O)[C@@H](O)[C@@H]3O)O[C@H](CO)[C@H](O)[C@@H]2O)[C@H](O)[C@H](O)[C@H]1O | 0%
C[C@@H]1O[C@@H](O[C@H]2[C@H](O[C@H]3[C@H](O[C@H]4CC[C@@]5(C)[C@@H](CC[C@]6(C)[C@@H]5CC=C5[C@@H]7CC(C)(C)[C@@H](O[C@@H]8OC[C@@H](O)[C@H](O)[C@H]8O)[C@@H](O)[C@]7(C)CC[C@]56C)[C@@]4(C)CO)O[C@H](C(=O)O)[C@@H](O)[C@@H]3O)O[C@H](CO)[C@H](O)[C@@H]2O)[C@H](O)[C@H](O)[C@H]1O | 0%
C[C@@H]1O[C@@H](O[C@H]2[C@H](O[C@H]3[C@H](O[C@H]4CC[C@@]5(C)[C@@H](CC[C@]6(C)[C@@H]5CC=C5[C@@H]7C[C@@](C)(CO[C@@H]8O[C@H](CO)[C@@H](O)[C@H](O)[C@H]8O)C[C@@H](O)[C@]7(C)CC[C@]56C)[C@@]4(C)CO)O[C@H](C(=O)O)[C@@H](O)[C@@H]3O)O[C@H](CO)[C@H](O)[C@@H]2O)[C@H](O)[C@H](O)[C@H]1O | 0%
C[C@@H]1O[C@@H](O[C@H]2[C@H](O[C@H]3[C@H](O[C@H]4CC[C@@]5(C)[C@@H](CC[C@]6(C)[C@@H]5CC=C5[C@@H]7CC(C)(C)C[C@@H](O)[C@]7(C)CC[C@]56C)[C@@]4(C)CO)O[C@H](C(=O)O)[C@@H](O)[C@@H]3O)OC[C@@H](O)[C@@H]2O)[C@H](O)[C@H](O)[C@H]1O | 0%
C[C@@H]1O[C@@H](O[C@H]2[C@H](O[C@H]3[C@H](O[C@H]4CC[C@@]5(C)[C@@H](CC[C@]6(C)[C@@H]5CC=C5[C@@H]7CC(C)(C)C[C@@H](O[C@@H]8O[C@H](CO)[C@@H](O)[C@H](O)[C@H]8O)[C@]7(C)CC[C@]56C)[C@@]4(C)CO)O[C@H](C(=O)O)[C@@H](O)[C@@H]3O)O[C@H](CO)[C@H](O)[C@@H]2O)[C@H](O)[C@H](O)[C@H]1O | 0%
C[C@@H]1O[C@@H](O[C@H]2[C@H](O[C@H]3[C@H](O[C@H]4CC[C@@]5(C)[C@@H](CC[C@]6(C)[C@@H]5CC=C5[C@@H]7CC(C)(C)[C@H](O[C@@H]8O[C@H](CO)[C@@H](O)[C@H](O)[C@H]8O)C[C@]7(C)CC[C@]56C)[C@@]4(C)CO)O[C@H](C(=O)O)[C@@H](O)[C@@H]3O)OC[C@@H](O)[C@@H]2O)[C@H](O)[C@H](O)[C@H]1O | 0%
